# Test results published in patent US11267826B2, “Penicillin-binding protein inhibitors” (priority 2017, dated 2022).
# Columns and labels:
# [1] = tested on: hyper-permeable E. coli 901C; assay: Broth microdilution MIC assay, hyper-permeable E. coli; type: cell-based; conditions: Escherichia coli, read-out: E. coli 901C MIC
# Outline: (§1)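 Growth inhibition is measured by CLSI broth microdilution. Log-phase bacteria (5×10^5 CFU/mL starting density) are incubated with 2-fold compound dilutions in cation-supplemented MH broth for 16-20 hours at 37° C, and the MIC is scored visually.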
# E. coli K12 PBP1a/b = assay: Bocillin FL competition binding assay, PBP1a/1b combined; parameters: species or system Escherichia coli K12; conditions: 15 min pre-incubation, PBP 1a/1b combined
# Outline: (§2)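 E. coli K12 membrane extracts (100 µg protein) pre-incubated 15 min with compound (0.005–2,480 µg/mL) in pH 7 phosphate/350 mM NaCl, then labelled with Bocillin FL 30 min at 35°C; SDS-PAGE fluorescence (ex 450/em 520 nm), μg/mL reported. PBP1a/1b unresolved, reported combined.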
# E. coli PBP3 = molecular target: T1, E. coli PBP3 (Escherichia coli, UniProt P0AD68); assay: Bocillin FL competition binding assay, PBP3; parameters: species or system Escherichia coli K12; conditions: 15 min pre-incubation
# T1 construct: 100 μg's of total membrane protein extracts containing PBPs; endogenous in cells; host or cells: Escherichia coli K12, membrane protein fraction
# Outline: as §2
# E. coli K12 PBP1b = molecular target: T2, E. coli K12 PBP1b (Escherichia coli, UniProt P02919); assay: Competition binding assay using Bodipy-FL boronic acid probe (Example 125); conditions: Bodipy-FL boronic acid probe (Example 125) 30 μM, 10 minutes pre-incubation, 10 minutes reaction
# T2 construct: endogenous in cells; host or cells: Escherichia coli K12, membrane protein fraction
# Description: Penicillin binding proteins were isolated from Escherichia coli K12 by growth of Escherichia coli K12 from a single colony in 4 L of Luria-Bertani (LB) broth at 35° C. and 250 rpm to an OD600 nm of 0.5. The cells were harvested by centrifugation at 7,000×g for 10 min. at 4° C. Cells were resuspended and washed in 50 mM potassium phosphate pH 7.5. The cells were re-suspended in sonication buffer [50 mM Tris-HCl pH 7.5, 1 mM MgCl2, 1 mM beta-mercaptoethanol, and 5 μg/mL DNAse I] and sonicated by 4 passes of 30 seconds at 45 W on ice. The sample was clarified by centrifugation at 3,000×g to remove cell debris and unbroken cells and supernatant containing the membrane proteins was retained. The membrane proteins including the PBPs were further purified from soluble constituents by an ultracentrifugation step at 100,000×g for 30 min. at 4° C. The membrane proteins are washed twice with 10 mM sodium phosphate pH 7, resuspended in a volume of 5 mL, quantitated by BCA assay, adjusted to […] and frozen at −80° C. until use.
# The adapted Bocillin FL competition binding method described herein incorporates a 15 min. pre-incubation of test compound with isolated PBPs to attempt to balance the difference in mechanism of inhibition between beta-lactams (largely irreversible covalent bond to active site Serine) and the boron-containing PBP inhibitor test compounds (reversible covalent bond to active site Serine). Briefly, 50 μL reactions consisted of 100 μg's of total membrane protein extracts containing PBPs incubated with a dilution series of test compound ranging from 0.005 μg/mL to 2,480 μg/mL in 10 mM sodium phosphate pH7 containing 350 mM NaCl. Thirty minute reactions at 35° C. were initiated by addition of […] Bocillin FL, quenched by addition of SDS-PAGE loading buffer containing sodium dodecyl sulfate (SDS) and heated for 15 minutes at 95° C. to denature proteins in preparation for SDS-polyacrylamide gel electrophoresis. The Bocillin FL labeled PBPs are then separated by SDS-PAGE in Novex NuPage 10% Bis-Tris pre-cast gels (Invitrogen). The SDS-PAGE gel, post-electrophoresis, is then washed in water to remove excess SDS for 10 minutes at room temperature and placed on the scanning bed of a GE Healthcare/Amersham Biosciences Storm 860 fluorescence scanner. The excitation wavelength is in the blue spectrum at 450 nm and the emission at 520 nm is captured by the instrument. Effective PBP inhibitors are detected by a reduction in Bocillin FL labeling of the particular PBP over the dose range of test compound in a dose-responsive manner. High molecular weight PBP 1a/1b are not resolved by these gels, thus we report HMW PBP binding results in μg/mL for PBPs 1a/1b combined as well as for PBP2 and PBP3.
# To determine the ability of boronic acid-based test PBP inhibitors to bind Penicillin Binding Proteins (PBPs), a competition binding assay using a Bodipy-FL-labeled boronic acid PBP inhibitor (Example 125) was adapted from the classical method used to assess PBP potency of beta-lactams using Bocillin-FL (fluorescently-labeled penicillin V). The method is identical to that described in Example I for the Bocillin-FL competition binding assay with the following exceptions, the Bodipy-FL boronic acid probe (Example 125) is used at a final concentration of 30 μM, pre-incubation time of test compound with PBP enzymes is 10 minutes and reaction time is set for 10 minutes and reactions are prepared for SDS-PAGE analysis by simply adding SDS-containing loading buffer. Representative results are shown in Table 5, where A represents a potency of >1000 μg/mL, B represents a potency between 64 and 1000 μg/mL inclusive, and C represents a potency of <64 μg/mL. NT=Not Tested.
# E. coli PBP2 = molecular target: T3, E. coli PBP2 (Escherichia coli, UniProt P0AD65); assay: Bocillin FL competition binding assay, PBP2; parameters: species or system Escherichia coli K12; conditions: 15 min pre-incubation
# T3 construct: 100 μg's of total membrane protein extracts containing PBPs; endogenous in cells; host or cells: Escherichia coli K12, membrane protein fraction
# Outline: as §2
# S. aureus ATCC 29213 = assay: Broth microdilution MIC assay, S. aureus; type: cell-based; conditions: Staphylococcus aureus, ATCC29213; broth microdilution, 16-20 hours at 37° C.; read-out: S. aureus 29213 MIC
# Outline: as §1
# [2] = tested on: E. coli DH5a harboring VIM-2; assay: Broth microdilution MIC, engineered E. coli expressing VIM-2; type: cell-based; conditions: Escherichia coli, read-out: MIC, β-lactamase VIM
# Description: (§3) To determine the ability of test compounds to potentiate the inhibition of the growth of bacterial strains, classic cell based broth microdilution MIC assays were employed. MIC assays are performed according to CLSI methods except where otherwise noted (CLSI, 2011 and CLSI, 2009). The reference strain S. aureus ATCC 29213 and the hyper-permeable E. coli 901C were used to determine the ability of the PBP compounds to inhibit bacterial growth. Briefly, cryo-preserved bacterial cultures of clinical strains are streaked for isolation on appropriate agar medium, in this case Mueller Hinton II agar. Following incubation to allow formation of colonies these plates are sealed with parafilm and stored refrigerated for up to two weeks. For preparation of assay inocula and to ensure low variability, at least 5 colonies are picked from the agar plates with an inoculating loop and aseptically transferred to a culture tube containing 3 mL of Mueller-Hinton Broth (supplemented with divalent cations to required levels based on Manufacturers' certification). The broth culture is grown for 3-5 hours at 37° C. with shaking at 200 rpm. Meanwhile, 2-fold serial dilutions of test compounds are conducted in a 96 well plate with a final volume of 75 μL per well at 2-fold the final desired concentration. After the dilution plates are set up the growing cultures are then diluted in a cuvette containing MH II broth and the optical density is measured at 600 nm. Inocula are diluted such that 75 μL of this culture in Mueller-Hinton Broth results in a starting bacterial concentration of 5×10^5 CFU/mL when added to the dilution plates. The plates are incubated 16-20 hours at 37° C. The MIC is read visually as the lowest concentration well with no bacterial growth.
# (§4) To determine if test compounds were affected by various known β-lactamases, the inhibition of the growth of engineered strains of Escherichia coli harboring select single β-lactamases were tested. […]
# [3] = tested on: E. coli DH5a with pLBII plasmid with no β-lactamase gene; assay: Broth microdilution MIC, engineered E. coli control strain (pLBII plasmid, no β-lactamase gene); type: cell-based; conditions: Escherichia coli, read-out: MIC, β-lactamase None
# Description: as §3, §4
# [4] = tested on: E. coli DH5a harboring OXA-48; assay: Broth microdilution MIC, engineered E. coli expressing OXA-48; type: cell-based; conditions: Escherichia coli, read-out: MIC, β-lactamase OXA
# Description: as §3, §4
# [5] = tested on: E. coli DH5a harboring SHV-5; assay: Broth microdilution MIC, engineered E. coli expressing SHV-5; type: cell-based; conditions: Escherichia coli, read-out: MIC, β-lactamase SHV
# Description: as §3, §4
# [6] = tested on: E. coli DH5a harboring NDM-1; assay: Broth microdilution MIC, engineered E. coli expressing NDM-1; type: cell-based; conditions: Escherichia coli, read-out: MIC, β-lactamase NDM
# Description: as §3, §4
# [7] = tested on: E. coli DH5a harboring IMP-18; assay: Broth microdilution MIC, engineered E. coli expressing IMP-18; type: cell-based; conditions: Escherichia coli, read-out: MIC, β-lactamase IMP
# Description: as §3, §4
# [8] = tested on: E. coli DH5a harboring CTX-M15; assay: Broth microdilution MIC, engineered E. coli expressing CTX-M15; type: cell-based; conditions: Escherichia coli, read-out: MIC, β-lactamase CTXM
# Description: as §3, §4
# [9] = tested on: E. coli DH5a harboring TEM-24; assay: Broth microdilution MIC, engineered E. coli expressing TEM-24; type: cell-based; conditions: Escherichia coli, read-out: MIC, β-lactamase TEM
# Description: as §3, §4
# [10] = tested on: engineered strains of Escherichia coli harboring select single β-lactamases; assay: MIC across the panel of engineered E. coli strains harboring select single β-lactamases; type: cell-based; conditions: strains expressing β-lactamases compared with control strain, result in words
# Description: To determine if test compounds were affected by various known β-lactamases, the inhibition of the growth of engineered strains of Escherichia coli harboring select single β-lactamases were tested. These strains were constructed by cloning the gene encoding the particular β-lactamase into the NdeI and BamHI restriction endonuclease sites of plasmid pLBII, placing the gene(s) under the control of the Lac promoter.
# T3 sequence (P0AD65 whole entry): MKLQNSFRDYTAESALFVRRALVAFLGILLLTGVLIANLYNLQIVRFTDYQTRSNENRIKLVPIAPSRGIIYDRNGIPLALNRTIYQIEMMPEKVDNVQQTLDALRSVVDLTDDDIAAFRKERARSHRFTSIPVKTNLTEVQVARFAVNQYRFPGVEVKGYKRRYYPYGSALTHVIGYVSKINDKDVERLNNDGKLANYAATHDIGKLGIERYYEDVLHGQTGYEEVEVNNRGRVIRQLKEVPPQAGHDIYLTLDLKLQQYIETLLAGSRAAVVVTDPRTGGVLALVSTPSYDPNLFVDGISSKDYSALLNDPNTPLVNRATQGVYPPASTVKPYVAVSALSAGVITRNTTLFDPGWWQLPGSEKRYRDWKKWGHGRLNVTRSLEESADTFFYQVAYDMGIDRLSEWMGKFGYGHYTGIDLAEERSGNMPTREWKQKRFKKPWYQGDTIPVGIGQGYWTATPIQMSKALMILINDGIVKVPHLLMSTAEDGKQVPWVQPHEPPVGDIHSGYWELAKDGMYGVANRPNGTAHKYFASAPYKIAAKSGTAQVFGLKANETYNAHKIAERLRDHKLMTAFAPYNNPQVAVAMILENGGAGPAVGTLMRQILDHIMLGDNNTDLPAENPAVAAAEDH
# T2 sequence (P02919 whole entry): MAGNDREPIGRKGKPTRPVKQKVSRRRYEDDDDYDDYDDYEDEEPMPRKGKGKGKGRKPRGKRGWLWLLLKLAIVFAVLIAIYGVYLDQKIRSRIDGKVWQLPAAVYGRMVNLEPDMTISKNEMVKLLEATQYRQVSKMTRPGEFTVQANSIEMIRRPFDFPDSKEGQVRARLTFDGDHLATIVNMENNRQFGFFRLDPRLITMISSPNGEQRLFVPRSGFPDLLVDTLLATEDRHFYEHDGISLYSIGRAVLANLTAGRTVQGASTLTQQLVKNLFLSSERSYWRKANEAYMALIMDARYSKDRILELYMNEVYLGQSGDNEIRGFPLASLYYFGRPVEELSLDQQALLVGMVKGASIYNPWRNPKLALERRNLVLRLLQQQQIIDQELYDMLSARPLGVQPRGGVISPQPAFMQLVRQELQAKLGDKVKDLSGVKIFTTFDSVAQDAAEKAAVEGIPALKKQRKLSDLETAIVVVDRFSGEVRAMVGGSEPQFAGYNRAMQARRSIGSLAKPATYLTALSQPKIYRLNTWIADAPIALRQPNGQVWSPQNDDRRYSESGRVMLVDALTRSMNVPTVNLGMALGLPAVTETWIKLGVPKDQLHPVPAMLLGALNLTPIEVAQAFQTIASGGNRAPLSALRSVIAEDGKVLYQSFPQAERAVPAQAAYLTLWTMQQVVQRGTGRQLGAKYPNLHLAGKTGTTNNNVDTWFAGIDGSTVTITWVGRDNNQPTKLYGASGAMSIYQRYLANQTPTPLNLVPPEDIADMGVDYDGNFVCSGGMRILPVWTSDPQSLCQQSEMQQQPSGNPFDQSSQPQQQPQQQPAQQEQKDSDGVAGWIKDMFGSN
# T1 sequence (P0AD68 1-577): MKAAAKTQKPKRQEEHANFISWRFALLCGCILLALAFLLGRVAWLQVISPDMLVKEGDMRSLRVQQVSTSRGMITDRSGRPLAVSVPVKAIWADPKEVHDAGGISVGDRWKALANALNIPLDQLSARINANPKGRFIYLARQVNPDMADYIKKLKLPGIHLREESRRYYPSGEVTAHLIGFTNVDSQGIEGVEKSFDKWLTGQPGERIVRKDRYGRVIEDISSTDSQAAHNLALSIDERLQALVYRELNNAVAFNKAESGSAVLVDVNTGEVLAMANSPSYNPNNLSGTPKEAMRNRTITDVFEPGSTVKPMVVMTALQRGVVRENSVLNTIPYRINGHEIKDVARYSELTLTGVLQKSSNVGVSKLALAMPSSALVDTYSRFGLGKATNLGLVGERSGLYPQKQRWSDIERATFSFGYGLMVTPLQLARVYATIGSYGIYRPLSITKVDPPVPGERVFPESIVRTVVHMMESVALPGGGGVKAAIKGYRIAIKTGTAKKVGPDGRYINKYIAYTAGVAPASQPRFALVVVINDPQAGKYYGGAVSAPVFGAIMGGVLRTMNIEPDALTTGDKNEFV
SMILES,MIC [1],E. coli K12 PBP1a/b Potency (E. coli K12 PBP1a/b),E. coli PBP3 Potency (E. coli PBP3),E. coli K12 PBP1b Potency (E. coli K12 PBP1b),E. coli PBP2 Potency (E. coli PBP2),MIC (S. aureus ATCC 29213),MIC [2],MIC [3],MIC [4],MIC [5],MIC [6],MIC [7],MIC [8],MIC [9],Effect of expressed β-lactamase on MIC [10]
"CC(C)(O/N=C(\C(=O)N[C@H]1Cc2cccc(C(=O)O)c2OB1O)c1csc(N)n1)C(=O)O [Example 68, (R,Z)-3-(2-(2-aminothiazol-4-yl)-2-(((2-carboxypropan-2-yl)oxy)imino)acetamido)-2-hydroxy-3,4-dihydro-2H-benzo[e][1,2]oxaborinine-8-carboxylic Acid]",< 64 µg/mL,C (C represents a potency of <64 μg/mL),C (C represents a potency of <64 μg/mL),C (C represents a potency of <64 μg/mL),C (C represents a potency of <64 μg/mL),> 128 µg/mL,–,–,–,–,–,–,–,–,–
"NC(=O)CO/N=C(\C(=O)N[C@H]1Cc2cccc(C(=O)O)c2OB1O)c1csc(N)n1 [Example 61, (R,Z)-3-(2-((2-amino-2-oxoethoxy)imino)-2-(2-aminothiazol-4-yl)acetamido)-2-hydroxy-3,4-dihydro-2H-benzo[e][1,2]oxaborinine-8-carboxylic Acid]",< 64 µg/mL,C (C represents a potency of <64 μg/mL),C (C represents a potency of <64 μg/mL),C (C represents a potency of <64 μg/mL),B (B represents a potency between 64 and 1000 μg/mL inclusive),64 to 128 µg/mL,–,–,–,–,–,–,–,–,–
"C[C@H]1[C@H](NC(=O)/C(=N\OC(C)(C)C(=O)O)c2csc(N)n2)C(=O)N1S(=O)(=O)O [Aztreonam, reference compound]",–,–,–,–,–,–,0.06 µg/mL,0.06 µg/mL,0.125 µg/mL,8 µg/mL,0.06 µg/mL,0.06 µg/mL,32 µg/mL,1 µg/mL,weaker MICs in those strains
